Results from patent US20080226698A1 (priority 2007, published 2008).

CCN(CC)CC#CCOC(=O)C(O)(c1ccccc1)C1CCCCC1 (centres unmarked) [oxybutynin base, oxybutynin]
Glass transition temperature of the amorphous form (DSC): about −20 °C

CN1[C@@H]2C[C@@H](OC(=O)[C@H](CO)c3ccccc3)C[C@H]1[C@@H]1O[C@@H]12 [scopolamine]
Tg of the amorphous form relative to normal storage temperature (normal storage temperature of 20° C. to 25° C.): lower than the normal storage temperature
